The values that follow come from patent US11111237B2, “Bicyclic compound and use thereof” (SK BIOPHARMACEUTICALS CO., LTD., priority 2019, dated 2021).

The structures appear in SMILES notation. Counter-ions that a name gives are not always drawn.

In general, IC50 refers to the concentration needed to halve the response being measured. A high value points to weaker potency in that assay.

In the assay the target is PRMT5-MEP50 enzyme complex (Homo sapiens (Human), UniProt O14744). Kind of assay: PRMT5 enzyme activity in vitro assay (methylation of histone H4R3, ELISA absorbance at 450 nm). The assay is classed as biochemical. To be noted: SAM, histone H4 peptide, room temperature 2 hours, 8 points from 10 μM to 0.128 nM. As for the experimental part: Method for Measuring Enzyme Activity
Sequence of PRMT5-MEP50 enzyme complex (O14744 2-637): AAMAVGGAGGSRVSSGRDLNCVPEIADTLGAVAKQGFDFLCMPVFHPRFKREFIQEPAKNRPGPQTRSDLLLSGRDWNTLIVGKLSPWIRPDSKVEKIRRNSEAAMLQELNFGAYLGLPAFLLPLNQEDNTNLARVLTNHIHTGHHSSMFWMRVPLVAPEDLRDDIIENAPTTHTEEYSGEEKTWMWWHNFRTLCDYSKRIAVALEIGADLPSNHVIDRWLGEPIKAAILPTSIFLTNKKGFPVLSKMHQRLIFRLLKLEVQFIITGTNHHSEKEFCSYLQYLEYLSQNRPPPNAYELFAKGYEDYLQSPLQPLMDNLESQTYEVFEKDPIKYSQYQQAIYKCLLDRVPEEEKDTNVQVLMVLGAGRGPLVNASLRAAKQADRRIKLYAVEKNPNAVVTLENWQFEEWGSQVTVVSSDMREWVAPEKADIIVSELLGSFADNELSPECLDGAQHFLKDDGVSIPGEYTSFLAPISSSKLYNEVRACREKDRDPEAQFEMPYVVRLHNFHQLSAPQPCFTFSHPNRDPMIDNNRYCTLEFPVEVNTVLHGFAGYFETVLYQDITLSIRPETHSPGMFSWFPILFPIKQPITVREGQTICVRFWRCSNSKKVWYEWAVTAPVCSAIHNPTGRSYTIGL
Sequence of PRMT5-MEP50 enzyme complex (Q9BQA1 2-342 partner): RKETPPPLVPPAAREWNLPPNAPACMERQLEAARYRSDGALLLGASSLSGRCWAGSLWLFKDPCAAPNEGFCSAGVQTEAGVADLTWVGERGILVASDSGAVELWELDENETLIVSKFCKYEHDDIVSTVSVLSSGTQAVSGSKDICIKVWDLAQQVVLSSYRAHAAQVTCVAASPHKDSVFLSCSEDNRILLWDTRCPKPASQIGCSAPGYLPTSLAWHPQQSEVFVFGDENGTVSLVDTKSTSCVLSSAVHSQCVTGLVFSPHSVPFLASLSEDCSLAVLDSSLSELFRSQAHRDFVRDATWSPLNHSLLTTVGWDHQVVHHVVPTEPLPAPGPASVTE
In vitro assay: PRMT5-MEP50 enzyme complex, cofactor S-adenosylmethionine (SAM) and histone H4 peptide were reacted in vitro, and methylation of arginine (H4R3)—which is the third amino acid of histone H4—was measured in order to measure the enzyme activity of PRMT5.
Reagents: PRMT5-MEP50 enzyme complex (Catalog No. 51045), blocking buffer (52100-B), histone methyltransferase reaction buffer 2 (4×HMT assay buffer 2, Catalog No. 52170), and primary antibody (primary antibody 4-3, Catalog No. 52150) were purchased from BPS Bioscience (USA). The histone H4 peptide (1-20 amino acids) was custom made by Komabiotech (Korea) and used. S-adenosylmethionine was purchased from NEB (New England Biolabs, USA, Catalog No. B9003S). Plates for coating histone H4 peptide, washing buffer and color development reagent were purchased from the following vendors: Plate (Immobilizer™-Amino Plate, NUNC, Denmark, Catalog No. 436023), carbonate-bicarbonate buffer (Sigma-Aldrich, USA, Catalog No. C3041), washing buffer (10×TBST, Biosesang, Korea, Catalog No. T2005), TMB ELISA substrate (Abcam, UK, Catalog No. ab210902), horseradish peroxidase (HRP)-conjugated antibody (Abcam, UK, Catalog No. ab6721).
Experimental procedure: The histone H4 peptide was diluted with carbonate-bicarbonate buffer and prepared to 100 μg/mL, and then dispensed onto the plate per 100 μL and reacted at 37° C. for 1 hour. PRMT5-MEP50 enzyme complex and S-adenosylmethionine were diluted with histone methyltransferase reaction buffer to prepare 5 μg/mL and 2 μM, respectively, and then 20 μL of PRMT5-MEP50 enzyme complex and 25 μL of S-adenosylmethionine were dispensed onto the plate prepared above. 5 μL of the compound diluted with 10% dimethyl sulfoxide solution was added thereto and reacted at room temperature for 2 hours (final volume=50 μL). The concentration of the compound was diluted 1:5 from 10 μM until the lowest concentration of 0.128 nM, and 8 points were used for the test. After preparing the primary antibody by diluting 1:2000 with blocking buffer, 100 μL was added to the plate and reacted at room temperature for 1 hour. After preparing horseradish peroxidase-conjugated antibody by diluting 1:10,000 with blocking buffer, 100 μL was added to the plate and reacted at room temperature for 1 hour. 100 μL of TMB substrate was added and reacted for 3 minutes at room temperature, and 100 μL of 1 N sulfuric acid was then added to terminate the reaction. Then, the absorbance at 450 nm was measured to calculate the IC50 value of the compound. (+++: 1 to 100 nM, ++: greater than 100 to 1,000 nM, +: greater than 1,000 to 10,000 nM)
In the case of `CC1(C)CN(C[C@H](O)CN2CCc3ccccc3C2)C(=O)c2ccc(OC3CCN(CCO)CC3)nc2O1` [Example 234, 4-[(2R)-3-(3,4-dihydro-1H-isoquinolin-2-yl)-2-hydroxy-propyl]-8-[[1-(2-hydroxyethyl)-4-piperidyl]oxy]-2,2-dimethyl-3H-pyrido[3,2-f][1,4]oxazepin-5-one], the IC50 is 1 to 100 nM.
Under `CN1CCN(C[C@H](O)CN2CCc3ccccc3C2)C(=O)c2ccc(OCc3ccncc3F)cc21` [Example 134, 4-[(2R)-3-(3,4-dihydro-1H-isoquinolin-2-yl)-2-hydroxy-propyl]-8-[(3-fluoro-4-pyridyl)methoxy]-1-methyl-2,3-dihydro-1,4-benzodiazepin-5-one] stands 1 to 100 nM; under `CN1CCCC(COc2ccc3c(c2)N(C)CCN(C[C@H](O)CN2CCc4ccccc4C2)C3=O)C1` (stereo partly drawn) [Example 133, 4-[(2R)-3-(3,4-dihydro-1H-isoquinolin-2-yl)-2-hydroxy-propyl]-1-methyl-8-[(1-methyl-3-piperidyl)methoxy]-2,3-dihydro-1,4-benzodiazepin-5-one], 1 to 100 nM; under `CC(=O)N1CCN(Cc2ccc3c(c2)OCCN(C[C@H](O)CN2CCc4ccccc4C2)C3=O)CC1` [Example 53, 8-[(4-acetylpiperazin-1-yl)methyl]-4-[(2R)-3-(3,4-dihydro-1H-isoquinolin-2-yl)-2-hydroxy-propyl]-2,3-dihydro-1,4-benzoxazepin-5-one], 100 to 1000 nM.
Under `CC1(C)CN(C[C@H](O)CN2CCc3ccccc3C2)C(=O)c2ccc(CN3CCCCC3)nc2O1` [Example 197, 4-[(2R)-3-(3,4-dihydro-1H-isoquinolin-2-yl)-2-hydroxy-propyl]-2,2-dimethyl-8-(1-piperidylmethyl)-3H-pyrido[3,2-f][1,4]oxazepin-5-one] stands 100 to 1000 nM; under `O=C1c2ccc(CN3CCCCC3)cc2OCCN1C[C@H](O)CN1CCc2ccccc2C1` [Example 23, 4-[(2R)-3-(3,4-dihydro-1H-isoquinolin-2-yl)-2-hydroxy-propyl]-8-(1-piperidylmethyl)-2,3-dihydro-1,4-benzoxazepin-5-one], 1 to 100 nM.
Under `COCCN1CC[C@@H](Oc2ccc3c(c2)O[C@H](C)CN(C[C@H](O)CN2CCc4ccccc4C2)C3=O)C1` [Example 274, (2R)-4-[(2R)-3-(3,4-dihydro-1H-isoquinolin-2-yl)-2-hydroxy-propyl]-8-[(3R)-1-(2-methoxyethyl)pyrrolidin-3-yl]oxy-2-methyl-2,3-dihydro-1,4-benzoxazepin-5-one] stands 100 to 1000 nM; under `C[C@@H]1CN(C[C@H](O)CN2CCc3ccccc3C2)C(=O)c2ccc(O[C@H]3CCN(C)C3)cc2O1` [Example 264, (2R)-4-[(2R)-3-(3,4-dihydro-1H-isoquinolin-2-yl)-2-hydroxy-propyl]-2-methyl-8-[(3S)-1-methylpyrrolidin-3-yl]oxy-2,3-dihydro-1,4-benzoxazepin-5-one], 100 to 1000 nM.
`O=C(c1ccc2c(c1)OCCN(C[C@H](O)CN1CCc3ccccc3C1)C2=O)N1CCC(C(F)(F)F)CC1` [Example 186, 4-[(2R)-3-(3,4-dihydro-1H-isoquinolin-2-yl)-2-hydroxy-propyl]-8-[4-(trifluoromethyl)piperidine-1-carbonyl]-2,3-dihydro-1,4-benzoxazepin-5-one] displayed an IC50 of 100 to 1000 nM.
With `O=C1c2ccc(C#Cc3ccncc3)cc2OCCN1C[C@H](O)CN1CCc2ccccc2C1` [Example 226, 4-[(2R)-3-(3,4-dihydro-1H-isoquinolin-2-yl)-2-hydroxy-propyl]-8-[2-(4-pyridyl)ethynyl]-2,3-dihydro-1,4-benzoxazepin-5-one] the figure was 1 to 100 nM; with `CC1(C)CN(C[C@H](O)CN2CCc3ccccc3C2)C(=O)c2ccc(OC3CCN(C=O)CC3)cc2O1` [Example 181, 4-[[4-[(2R)-3-(3,4-dihydro-1H-isoquinolin-2-yl)-2-hydroxy-propyl]-2,2-dimethyl-5-oxo-3H-1,4-benzoxazepin-8-yl]oxy]piperidine-1-carbaldehyde], 100 to 1000 nM.
With `COCCN1CCC(Oc2ccc3c(c2)OCCN(C[C@H](O)CN2CCc4ccccc4C2)C3=O)CC1` [Example 243] the figure was 1 to 100 nM; with `Cn1cc(-c2ccc3c(c2)OCCN(C[C@H](O)CN2CCc4ccccc4C2)C3=O)cn1` [Example 232, 4-[(2R)-3-(3,4-dihydro-1H-isoquinolin-2-yl)-2-hydroxy-propyl]-8-(1-methylpyrazol-4-yl)-2,3-dihydro-1,4-benzoxazepin-5-one], 100 to 1000 nM; with `CN1CCC[C@@H](Oc2ccc3c(c2)OCCN(C[C@H](O)CN2CCc4ccccc4C2)C3=O)C1` [Example 218, 4-[(2R)-3-(3,4-dihydro-1H-isoquinolin-2-yl)-2-hydroxypropyl]-8-[(1-methyl-3-piperidyl)oxy]-2,3-dihydro-1,4-benzoxazepin-5-one], 100 to 1000 nM.
Under `CC1(C)CN(C[C@H](O)CN2CCc3ccccc3C2)C(=O)c2ccc(C(=O)N3CCn4cccc4C3)cc2O1` [Example 209, 4-[(2R)-3-(3,4-dihydro-1H-isoquinolin-2-yl)-2-hydroxy-propyl]-8-(3,4-dihydro-1H-pyrrolo[1,2-a]pyrazine-2-carbonyl)-2,2-dimethyl-3H-1,4-benzoxazepin-5-one] stands 100 to 1000 nM; under `CN1CCC(Oc2ccc3c(c2)N(C)CCN(C[C@H](O)CN2CCc4ccccc4C2)C3=O)C1` (stereo partly drawn) [Example 132, 4-[(2R)-3-(3,4-dihydro-1H-isoquinolin-2-yl)-2-hydroxy-propyl]-1-methyl-8-(1-methylpyrrolidin-3-yl)oxy-2,3-dihydro-1,4-benzodiazepin-5-one], 100 to 1000 nM; under `O=C1c2ccc(OC3CCN(C4CC4)CC3)cc2OCCN1C[C@H](O)CN1CCc2ccccc2C1` [Example 90, 8-[(1-cyclopropyl-4-piperidyl)oxy]-4-[(2R)-3-(3,4-dihydro-1H-isoquinolin-2-yl)-2-hydroxy-propyl]-2,3-dihydro-1,4-benzoxazepin-5-one], 1 to 100 nM.
Compound `O=C1c2ccc(CN3CCCC3)cc2OCCN1C[C@H](O)CN1CCc2ccccc2C1` [Example 24, 4-[(2R)-3-(3,4-dihydro-1H-isoquinolin-2-yl)-2-hydroxy-propyl]-8-(pyrrolidin-1-ylmethyl)-2,3-dihydro-1,4-benzoxazepin-5-one] had an IC50 of 1 to 100 nM.
Under `O=C1c2ccc(CN3CCCC(F)C3)cc2OCCN1C[C@H](O)CN1CCc2ccccc2C1` (stereo partly drawn) [Example 43, 4-[(2R)-3-(3,4-dihydro-1H-isoquinolin-2-yl)-2-hydroxy-propyl]-8-[(3-fluoro-1-piperidyl)methyl]-2,3-dihydro-1,4-benzoxazepin-5-one] stands 1 to 100 nM; under `CC1(C)CN(C[C@H](O)CN2CCc3ccccc3C2)C(=O)c2ccc(OCc3ccncc3)cc2O1` [Example 113, 4-[(2R)-3-(3,4-dihydro-1H-isoquinolin-2-yl)-2-hydroxy-propyl]-2,2-dimethyl-8-(4-pyridylmethoxy)-3H-1,4-benzoxazepin-5-one], 100 to 1000 nM; under `O=C1c2ccc(C3=CCOCC3)cc2OCCN1C[C@H](O)CN1CCc2ccccc2C1` [Example 20, 4-[(2R)-3-(3,4-dihydro-1H-isoquinolin-2-yl)-2-hydroxy-propyl]-8-(3,6-dihydro-2H-pyran-4-yl)-2,3-dihydro-1,4-benzoxazepin-5-one], 100 to 1000 nM.
`O=C1c2ccc(O[C@@H]3CCN(CCO)C[C@H]3F)cc2OCCN1C[C@H](O)CN1CCc2ccccc2C1` [Example 253, dihydrochloride] gave an IC50 of 100 to 1000 nM.
